Data published in patent US9364475B2, “Tablet formulation of a phosphatidylinositol 3-kinase inhibitor” (Sanofi, priority 2012, dated 2016).

Assays:
[1] = stability comparison of polymorphic forms; format: physicochemical; conditions: solid state, polymorphic forms of Compound (I)
[2] = system: human xenograft tumor models; conditions: multiple human xenograft tumor models; cited from earlier work
[3] = target: PI3K (phosphatidylinositol 3-kinase) (Homo sapiens, UniProt P42336); conditions: cited from earlier work
Sequence of PI3K (phosphatidylinositol 3-kinase) (P42336 whole entry): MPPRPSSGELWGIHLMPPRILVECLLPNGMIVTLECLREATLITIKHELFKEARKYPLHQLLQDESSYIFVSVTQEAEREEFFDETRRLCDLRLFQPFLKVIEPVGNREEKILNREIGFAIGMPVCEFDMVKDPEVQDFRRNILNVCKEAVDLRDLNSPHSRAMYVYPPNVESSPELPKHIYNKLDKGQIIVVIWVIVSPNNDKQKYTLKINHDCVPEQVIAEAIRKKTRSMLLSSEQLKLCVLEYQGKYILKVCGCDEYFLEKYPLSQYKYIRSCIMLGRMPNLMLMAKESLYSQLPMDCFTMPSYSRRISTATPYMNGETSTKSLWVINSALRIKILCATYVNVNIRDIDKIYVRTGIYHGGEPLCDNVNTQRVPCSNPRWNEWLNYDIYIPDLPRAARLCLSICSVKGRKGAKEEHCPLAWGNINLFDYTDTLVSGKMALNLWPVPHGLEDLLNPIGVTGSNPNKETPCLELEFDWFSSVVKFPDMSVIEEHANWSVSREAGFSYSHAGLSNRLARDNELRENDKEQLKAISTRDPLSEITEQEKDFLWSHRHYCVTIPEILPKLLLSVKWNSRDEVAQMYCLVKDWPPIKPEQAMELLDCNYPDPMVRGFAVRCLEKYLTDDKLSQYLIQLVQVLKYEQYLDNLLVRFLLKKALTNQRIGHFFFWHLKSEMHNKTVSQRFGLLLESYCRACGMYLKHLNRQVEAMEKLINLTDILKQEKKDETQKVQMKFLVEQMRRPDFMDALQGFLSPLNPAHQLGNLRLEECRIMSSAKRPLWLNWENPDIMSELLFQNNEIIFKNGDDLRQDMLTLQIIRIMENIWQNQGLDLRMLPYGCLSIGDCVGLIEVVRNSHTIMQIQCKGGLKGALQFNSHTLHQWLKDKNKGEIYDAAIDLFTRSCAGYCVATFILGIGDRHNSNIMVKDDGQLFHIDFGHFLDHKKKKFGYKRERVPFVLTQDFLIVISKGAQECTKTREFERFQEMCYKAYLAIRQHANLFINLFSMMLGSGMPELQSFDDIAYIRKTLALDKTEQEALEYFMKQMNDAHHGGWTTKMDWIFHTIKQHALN
Sequence of PI3K (phosphatidylinositol 3-kinase) (P27986 whole entry partner): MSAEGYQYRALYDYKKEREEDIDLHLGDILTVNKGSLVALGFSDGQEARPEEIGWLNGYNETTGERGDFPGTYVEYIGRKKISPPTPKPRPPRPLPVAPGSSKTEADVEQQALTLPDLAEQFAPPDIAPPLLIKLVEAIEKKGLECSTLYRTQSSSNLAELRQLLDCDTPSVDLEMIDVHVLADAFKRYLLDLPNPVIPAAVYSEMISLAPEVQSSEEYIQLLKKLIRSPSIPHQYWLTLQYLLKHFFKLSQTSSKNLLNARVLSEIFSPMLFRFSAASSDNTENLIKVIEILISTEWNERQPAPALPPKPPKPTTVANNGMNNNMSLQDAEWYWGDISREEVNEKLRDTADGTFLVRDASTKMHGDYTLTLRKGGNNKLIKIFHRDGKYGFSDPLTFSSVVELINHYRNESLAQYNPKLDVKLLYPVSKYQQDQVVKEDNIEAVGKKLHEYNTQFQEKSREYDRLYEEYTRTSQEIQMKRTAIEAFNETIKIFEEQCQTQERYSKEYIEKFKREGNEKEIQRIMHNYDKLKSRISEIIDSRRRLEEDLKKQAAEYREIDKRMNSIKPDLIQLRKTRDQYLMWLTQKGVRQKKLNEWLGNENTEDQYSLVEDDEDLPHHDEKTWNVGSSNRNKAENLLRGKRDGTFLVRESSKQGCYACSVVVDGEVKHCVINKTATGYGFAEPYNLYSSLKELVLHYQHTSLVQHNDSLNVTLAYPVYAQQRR

PI3K signaling pathway = conditions: cell lines in vitro and human xenograft tumor tissue in vivo; cited from earlier work

Compound | stability among the polymorphic forms evaluated [1] | tumor growth in human xenograft tumor models [2] | inhibition of PI3K [3] | phosphorylation of multiple downstream components of the PI3K signaling pathway (PI3K signaling pathway)
COc1ccc(Cl)c(Nc2nc3ccccc3nc2NS(=O)(=O)c2cccc(NC(=O)C(C)(C)N)c2)c1 [Polymorph E, N-(3-{[(2Z)-3-[(2-chloro-5-methoxyphenyl)amino]quinoxalin-2(1H)-ylidene]sulfamoyl}phenyl)-2-methylalaninamide] | most stable polymorphic form | – | – | –
COc1ccc(Cl)c(Nc2nc3ccccc3[nH]/c2=N\S(=O)(=O)c2cccc(NC(=O)C(C)(C)N)c2)c1 [Compound (I), N-(3-{[(2Z)-3-[(2-chloro-5-methoxyphenyl)amino]quinoxalin-2(1H)-ylidene]sulfamoyl}phenyl)-2-methylalaninamide] | – | tumor growth inhibition and tumor regression | potent and selective inhibitor | inhibits phosphorylation
